{"source": "patent US20230322805A1", "about": "“NOVEL PYRIMIDODIAZEPINE DERIVATIVES OR USES THEREOF” (SPARK BIOPHARMA, INC., priority 2020, published 2023)", "test": "Blood-brain barrier penetration test in male ICR mice", "assay_type": "in vivo, mouse", "conditions": "for concentration at 0.5 h / concentration at 3 h: male, 5 mg/kg", "procedure": "After intraperitoneal administration (5 mg/kg, 3.3 mL/kg) of the compound (SB1617, 5% DMSO/[…]) according to the present invention to CD-1 (ICR) male mice (7 weeks old, KOATECH, Korea), blood samples were collected using heparinized tubes at designated time points (0.5 and 3 hours) in the orbital venous plexus, mice were sacrificed, and brain tissues were harvested. Plasma and brain homogenate samples were analyzed with an LC-MS/MS analyzer (Agilent 1260, Agilent 6460). The proportion of the compound according to the invention (SB1617) in brain and plasma was calculated.\n6-1. In order to evaluate the suitability of the compound (SB1617) according to this invention in vivo, pharmacokinetic properties and blood-brain barrier penetration properties were identified using male ICR mice according to the methods described in Examples 1-15 and 1-16.\nIn addition, as shown in FIG. 28 and Table 3, it was confirmed that at least 50% of SB1617 was detected in the brain compared to plasma.", "note": "Like-named read-outs stand apart in the source and are kept apart here.", "data": [{"smiles": "CN(Cc1ccc(Cl)cc1)c1ncnc2c1[C@@H]1OC[C@H](CN2)N1S(=O)(=O)c1ccc([N+](=O)[O-])cc1", "note": "[Compound 117]", "values": [{"measurement": "Kp at 0.5 h", "setting": "CD-1 (ICR), mouse, brain, ip, 0.5 h after I.P. 5 mg/kg, read-out: Brain/Plasma ratio", "result": "0.5 ± 0.14"}, {"measurement": "Kp at 3 h", "setting": "CD-1 (ICR), mouse, brain, ip, 3 h after I.P. 5 mg/kg, read-out: Brain/Plasma ratio", "result": "0.66 ± 0.21"}, {"measurement": "Kp", "setting": "CD-1 (ICR), mouse, in vivo, ip, I.P. 5 mg/kg, read-out: SB1617 detected in the brain compared to plasma", "result": "≥ 0.5"}, {"measurement": "blood-brain barrier crossing", "setting": "intraperitoneal injection", "result": "sufficient blood-brain barrier crossing"}, {"measurement": "concentration at 0.5 h", "setting": "CD-1 (ICR), mouse, in vivo, ip, 0.5 h after I.P. 5 mg/kg, read-out: Concentration, Brain tissue", "result": "421 ± 58.2", "unit": "ng/mL"}, {"measurement": "concentration at 0.5 h", "setting": "CD-1 (ICR), mouse, in vivo, ip, 0.5 h after I.P. 5 mg/kg, read-out: Concentration, Plasma", "result": "885 ± 187", "unit": "ng/mL"}, {"measurement": "concentration at 3 h", "setting": "CD-1 (ICR), mouse, in vivo, ip, 3 h after I.P. 5 mg/kg, read-out: Concentration, Brain tissue", "result": "55.9 ± 5", "unit": "ng/mL"}, {"measurement": "concentration at 3 h", "setting": "CD-1 (ICR), mouse, in vivo, ip, 3 h after I.P. 5 mg/kg, read-out: Concentration, Plasma", "result": "92.4 ± 29.8", "unit": "ng/mL"}]}]}
